# Test results as given in patent US20120328521A1, “FORMULATIONS SUITABLE FOR PET IMAGING WITH HYDROPHOBIC PET AGENTS” (PIRAMAL IMAGING SA, priority 2009, published 2012).
# Tests used:
# Assay type in all cases: physicochemical
# [1] = Adsorption of compound 1 onto sterile filters (assay in filtrate of formulation II)
# Procedure: Formulation II comprising compound 1 was prepared as indicated above and filtered using selected sterile filters. Adsorption of compound 1 was determined before and after filtration using different filter types. Table 3 indicates the results of adsorption experiments using different filters.
# Only hydrophobic filters show a low amount of compound 1 adsorbed onto the filter material.
# [2] = Particulate matter testing of formulation I (HIAC Royco Liquid Particle Counting System); conditions: up to 8 hours
# Procedure: Solubility of the active was tested by visual inspection using an illuminated magnifying glass with black background and confirmed by experiments assessing particulate matter using the HIAC Royco, Liquid Particle Counting System, Model 9703.
# The formation of particles was assessed using the HIAC Royco, Liquid Particle Counting System, Model 9703 and in addition to the channels normally inspected (10 μm and 25 μm), also the smaller channels (2 μm and 5 μm) were used to assess the stability of the formulation. The formulation I was sterile filtered and inspected at timepoint 1 hour and 8 hours.
# Table 2 indicates the results of particulate matter testing up to 8 hours of 3 individually manufactured batches
# Since the handling of the solutions was made under normal laboratory conditions, the particle background measured in the sterile filtered solutions have an exogenous nature.
# [3] = Stability of formulation comprising HCl salt of compound 1 for 8 hours at room temperature (HPLC assay); conditions: for assay of HCl salt of compound 1, batch 01 / assay of HCl salt of compound 1, batch 02 / assay of HCl salt of compound 1, batch 03 / assay of HCl salt of compound 1, mean [%]: formulation I, 5.51 μg/mL; for assay of HCl salt of compound 1, mean [%]: mean of 3 batches
# Procedure: Since solutions of stilbenes are light sensitive, the solutions were stored under light protection.
# A solution was prepared containing 5.51 μg/mL HCl salt of compound 1 as in formulation I. Assay was analysed after different timepoints. Three individual batches were prepared and analysed for assay and particulate matter. From these solutions samples were taken and analysed by HPLC.
# Table 1 indicates the results of stability testing up to 8 hours of 3 individually manufactured batches.
smiles,measurement,setting,value
CNc1ccc(/C=C/c2ccc(OCCOCCOCCF)cc2)cc1 [Compound 1],Analysis of assay in filtrate,"[1]; Millipore Millex 0.2 μm, Order No SLGV013SL, PVDF, hydrophobic material rendered hydrophilic by surface modification",97.3%
same,Analysis of assay in filtrate,"[1]; Sartorius Minisart 0.2 μm (blue), Order No 16534, Celluloseacetat, hydrophylic",53%
same,Analysis of assay in filtrate,"[1]; Sartorius Minisart HY 0.2 μm, Order No 16596, PTFE, hydrophobic",96.5%
same,Analysis of assay in filtrate,"[1]; Sartorius Minisart High Flow 0.2 μm, Order No 16532, PES, hydrophobic",75%
same,amount adsorbed onto the filter material,[1]; only hydrophobic filters,low amount
same,dissolution state / precipitation in formulation,[2],remains dissolved and is not precipitating
same,chemical stability in the formulation,"[3]; HCl salt, 8 hours",chemically stable
same,"assay of HCl salt of compound 1, batch 01",[3]; time 1 hour,100.2%
same,"assay of HCl salt of compound 1, batch 02",[3]; time 1 hour,98.3%
same,"assay of HCl salt of compound 1, batch 03",[3]; time 1 hour,96.9%
same,"assay of HCl salt of compound 1, mean [%]",[3]; time 1 hour,98.5%
same,"assay of HCl salt of compound 1, batch 01",[3]; time 2 hours,101.2%
same,"assay of HCl salt of compound 1, batch 02",[3]; time 2 hours,98.4%
same,"assay of HCl salt of compound 1, batch 03",[3]; time 2 hours,97.17%
same,"assay of HCl salt of compound 1, mean [%]",[3]; time 2 hours,98.9%
same,"assay of HCl salt of compound 1, batch 01",[3]; time 3 hours,101.1%
same,"assay of HCl salt of compound 1, batch 02",[3]; time 3 hours,98.7%
same,"assay of HCl salt of compound 1, batch 03",[3]; time 3 hours,96.2%
same,"assay of HCl salt of compound 1, mean [%]",[3]; time 3 hours,98.7%
same,"assay of HCl salt of compound 1, batch 01",[3]; time 4 hours,101.2%
same,"assay of HCl salt of compound 1, batch 02",[3]; time 4 hours,98%
same,"assay of HCl salt of compound 1, batch 03",[3]; time 4 hours,97.4%
same,"assay of HCl salt of compound 1, mean [%]",[3]; time 4 hours,98.9%
same,"assay of HCl salt of compound 1, batch 01",[3]; time 5 hours,101.5%
same,"assay of HCl salt of compound 1, batch 02",[3]; time 5 hours,98.6%
same,"assay of HCl salt of compound 1, batch 03",[3]; time 5 hours,96.6%
same,"assay of HCl salt of compound 1, mean [%]",[3]; time 5 hours,98.9%
same,"assay of HCl salt of compound 1, batch 01",[3]; time 6 hours,101.5%
same,"assay of HCl salt of compound 1, batch 02",[3]; time 6 hours,98.7%
same,"assay of HCl salt of compound 1, batch 03",[3]; time 6 hours,95.7%
same,"assay of HCl salt of compound 1, mean [%]",[3]; time 6 hours,98.6%
same,"assay of HCl salt of compound 1, batch 01",[3]; time 7 hours,101.7%
same,"assay of HCl salt of compound 1, batch 02",[3]; time 7 hours,98.5%
same,"assay of HCl salt of compound 1, batch 03",[3]; time 7 hours,96.5%
same,"assay of HCl salt of compound 1, mean [%]",[3]; time 7 hours,98.9%
same,"assay of HCl salt of compound 1, batch 01",[3]; time 8 hours,102.7%
same,"assay of HCl salt of compound 1, batch 02",[3]; time 8 hours,98.7%
same,"assay of HCl salt of compound 1, batch 03",[3]; time 8 hours,96.5%
same,"assay of HCl salt of compound 1, mean [%]",[3]; time 8 hours,99.3%
